Measurements as given in publication PMC11276905 (International Journal of Molecular Sciences, 2024).
Entries after “also recorded” stand apart in the source; their conditions may differ. Like-named read-outs stand apart in the source and are kept apart here. Where a SMILES comes first, the peptide text is derived from it. The star is where a group is joined. MeOSuc = COC(=O)CCC(=O)*; CH2Cl = ClC*

Assays:
HNE in U937 cells = target: T1, HNE in U937 cells (Homo sapiens, UniProt P08246); assay: Intracellular HNE inhibition in cultured U937 cells (residual activity in lysates); type: cell-based; conditions: for time course of HNE inhibition in U937 cells (in words): 0-26 h culture; for effect on HNE activity in the U937 cell culture model (in words): 0-26 h, increasing concentrations, alvelestat and sivelestat up to more than 1000-fold above Ki
T1 construct: the myeloid cell line U937, which can differentiate into neutrophils [25] and expresses HNE; host or cells: U937 (histiocytic lymphoma), undifferentiated
T1 sequence (P08246 30-247 limits assumed): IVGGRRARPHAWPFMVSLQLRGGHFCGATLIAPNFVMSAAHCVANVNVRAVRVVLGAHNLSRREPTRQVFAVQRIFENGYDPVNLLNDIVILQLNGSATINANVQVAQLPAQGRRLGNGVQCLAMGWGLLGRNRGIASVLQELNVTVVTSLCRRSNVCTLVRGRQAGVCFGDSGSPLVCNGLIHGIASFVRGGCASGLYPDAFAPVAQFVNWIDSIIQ
Protocol: (§3) The enzymatic activity of HNE was measured using a fluorescence-based assay in 96-well black bottom plates (Corning®, 003916, New York, NY, USA). HNE (0.5 nM) or cell lysates (20 µL, ~100 PMN/µL, ~1000 U937/µL, ~5000 HL-60/µL or ~1000 HMC-1/µL) were diluted in assay buffer (200 mM TRIS HCl, 500 mM NaCl, 0.05% Tween-20, pH 8.0). […] AMC (7-Amino-4-methylcoumarin) standard curves were generated by measuring serial dilutions of the fluorophore AMC (1 µM–0 µM) in assay buffer on the same plate and used to calculate nM AMC generation from fluorescence measurements.
(§4) U937 cells were plated in sterile 96-U-well plates (92697, TPP, Trasadingen, Switzerland) at a density of 100 cells/µL in a cell culture medium (180 µL per well). Increasing concentrations of inhibitors and solvent controls were diluted in a culture medium and added (20 µL/well) to the 96-well plate 26 h, 6 h, 3 h, and 0 h before harvesting and lysing the cells (see below). Plates were kept at 37 °C, 5% CO2, and 95% humidity throughout the incubation period. […] Similarly, freshly isolated PMN were plated at 50–100 cells/µL in PBS (1 g/L glucose) and incubated for 1 h with inhibitors or controls.
(§5) For cell lysis, cells were pelleted in the microtiter plates by centrifugation (400× g, 10 min, 4 °C) and washed three times in PBS (4 °C). Washed cells were then lysed by adding lysis buffer (PBS, 1 M NaCl, 0.1% Tween-20, pH 7.4) and freeze–thawing on dry ice. Finally, lysates were centrifuged (2100× g) to remove cell debris. Enzymatic activity of HNE was determined as described above, and residual activity present after incubation with inhibitors expressed as % of matched solvent controls.

[1] = target: T2, isolated HNE (human neutrophil elastase) (Homo sapiens, UniProt P08246); assay: Inhibition of isolated HNE, steady-state kinetics (MeOSuc-AAPV-AMC); type: biochemical
T2 construct: immediately processed to its active form in the trans-Golgi before being targeted to azurophil granules; purchased Merck (Darmstadt, Germany) 324681
T2 sequence (P08246 30-267): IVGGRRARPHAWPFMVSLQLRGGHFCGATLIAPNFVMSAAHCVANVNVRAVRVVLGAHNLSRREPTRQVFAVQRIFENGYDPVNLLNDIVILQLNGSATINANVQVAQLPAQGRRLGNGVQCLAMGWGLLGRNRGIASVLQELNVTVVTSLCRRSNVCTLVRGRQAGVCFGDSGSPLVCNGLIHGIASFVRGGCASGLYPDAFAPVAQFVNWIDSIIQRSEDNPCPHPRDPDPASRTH
Protocol: (§1) To determine the inhibition constants of reversible inhibitors with isolated HNE and HNE in cell lysates, HNE (0.5 nM) and U937 lysates (1000 cells/µL) were incubated with serial dilutions of the compounds in assay buffer at 37 °C for ≥ 1 h. Subsequently, residual HNE activity was measured as described above and compared to the activity of uninhibited HNE. […] The inhibition curves generated were fitted to Morrisons’s equation to obtain the dissociation equilibrium constant Ki with pro-Fit (Quantum Soft, Uetikon am See, Switzerland) using a Levenberg–Marquardt algorithm.

HNE in U937 lysates = target: T3, HNE in U937 lysates (Homo sapiens, UniProt P08246); assay: Inhibition of HNE activity in U937 lysates; type: biochemical
T3 construct: the myeloid cell line U937, which can differentiate into neutrophils [25] and expresses HNE; host or cells: U937 (histiocytic lymphoma), undifferentiated
T3 sequence (P08246 30-247 limits assumed): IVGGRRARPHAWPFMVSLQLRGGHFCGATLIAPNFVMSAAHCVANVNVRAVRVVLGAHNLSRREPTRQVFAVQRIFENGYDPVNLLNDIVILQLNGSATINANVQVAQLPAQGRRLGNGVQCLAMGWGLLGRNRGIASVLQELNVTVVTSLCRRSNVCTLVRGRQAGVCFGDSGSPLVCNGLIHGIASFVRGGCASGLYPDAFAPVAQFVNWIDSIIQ
Protocol: (§2) For the quantification and characterization of HNE-like activity in cell lysates, the density of the sample cell suspension was first quantified using a CASY-1 cell counter.
as §1

[2] = target: T4, elastase-like activity (HNE) in PMN lysates (Homo sapiens, UniProt P08246); assay: Inhibition of elastase-like activity in PMN lysates; type: biochemical; conditions: 1 h, 37 °C
T4 construct: from tissue; host or cells: neutrophil granulocytes from peripheral venous blood of healthy human donors
T4 sequence (P08246 30-247 limits assumed): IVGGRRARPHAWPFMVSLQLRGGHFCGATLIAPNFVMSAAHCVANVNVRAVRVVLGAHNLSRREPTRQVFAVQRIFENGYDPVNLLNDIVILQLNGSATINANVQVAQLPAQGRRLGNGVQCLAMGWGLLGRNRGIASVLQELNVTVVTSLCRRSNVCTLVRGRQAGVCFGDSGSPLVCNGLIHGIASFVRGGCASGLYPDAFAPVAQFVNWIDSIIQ
Source text: Residual erythrocytes were eliminated by hypotonic lysis.
as §2

[3] = tested on: elastase-like activity in HL-60 lysates; assay: Inhibition of elastase-like activity in HL-60 lysates; type: biochemical, human; conditions: 1 h, 37 °C
Source text: as §2

isolated HNE = target: T5, isolated HNE (Homo sapiens, UniProt P08246); assay: Formation and dissociation of the HNE/inhibitor complex (pre-steady-state kinetics); type: biochemical; conditions: for kon: pre-steady-state kinetics, HNE 0.6 nM, 37 °C, mean ± SD; for koff: koff = Ki × kon, irreversible inhibitors ≈ zero
T5 construct: immediately processed to its active form in the trans-Golgi before being targeted to azurophil granules; purchased Merck (Darmstadt, Germany) 324681
T5 sequence (P08246 30-267): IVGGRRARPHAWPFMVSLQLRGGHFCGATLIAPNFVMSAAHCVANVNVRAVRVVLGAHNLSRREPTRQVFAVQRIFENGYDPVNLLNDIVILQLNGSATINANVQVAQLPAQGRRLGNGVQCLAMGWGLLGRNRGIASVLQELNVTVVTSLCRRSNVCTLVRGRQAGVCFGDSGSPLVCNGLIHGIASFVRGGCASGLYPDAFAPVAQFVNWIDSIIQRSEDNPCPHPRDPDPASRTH
Protocol: To determine the association rates (kon) of the inhibitors, the enzymatic activity of HNE (0.6 nM) was recorded continuously in an SFM25 fluorometer (Biotek Kontron, Neufahrn, Germany) by following the cleavage of MeOSuc-AAPV-AMC (10 µM) at 37 °C. When a constant rate was established (i.e., after 1–5 min), an inhibitor was added, and the reaction followed for up to 60 min. The pseudo-first-order rate constant kobs was obtained by fitting the observed presteady-state progress curve to the integrated equation of Morrison with pro-Fit. Apparent second-order rate constants were subsequently calculated as k2/Ki = kobs/It by linear regression from several independent experiments using a range of concentrations. For reversible inhibitors, the dissociation rate koff was subsequentially calculated as koff = Ki × kon; for irreversible inhibitors, koff is ≈ zero. Finally, the halftime of the HNE/inhibitor complex formation and dissociation were calculated as t1/2,on = 0.693/(kass × It + koff) and t1/2,off = 0.693/koff, respectively.

[4] = Inhibitor stability in serum-free cell culture medium; type: physicochemical; conditions: 26 h, 37 °C
Protocol: Inhibitors were prepared as above and incubated for 26 h in RPMI at 37 °C. Residual inhibitor activity was compared to the activity of freshly prepared compounds by measuring the inhibition of HNE.

U937 cells [5] = assay: LDH release from U937 cells; type: cell-based, human; conditions: after 26 h
Protocol: Cytotoxicity of the inhibitors was determined by analyzing the release of lactate dehydrogenase (LDH) into the cell culture medium using the LDH cytotoxicity kit II (PromoKine, Heidelberg, Germany) or the more sensitive Pierce LDH cytotoxicity assay kit (Thermo Scientific, Darmstadt, Germany) following the manufacturer’s instructions.

U937 cells [6] = assay: Proliferation of U937 cells; type: cell-based, human; conditions: concentrations ≥300 µM
Protocol: U937 cells were plated in sterile 96-U-well plates (92697, TPP, Trasadingen, Switzerland) at a density of 100 cells/µL in a cell culture medium (180 µL per well). Increasing concentrations of inhibitors and solvent controls were diluted in a culture medium and added (20 µL/well) to the 96-well plate 26 h, 6 h, 3 h, and 0 h before harvesting and lysing the cells (see below). Plates were kept at 37 °C, 5% CO2, and 95% humidity throughout the incubation period.

[7] = target: T2, isolated HNE (human neutrophil elastase); assay: Inhibition of isolated HNE, steady-state kinetics (MeOSuc-AAPV-AMC); type: biochemical; conditions: read-out: IC50(60min), isolated HNE; irreversible inhibitors, incubated 1 h, logistic fit, mean ± SD
HNE in mature PMN = target: T6, HNE in mature PMN (Homo sapiens, UniProt P08246); assay: Intracellular HNE inhibition in freshly isolated mature PMN
T6 sequence (P08246 30-247 limits assumed): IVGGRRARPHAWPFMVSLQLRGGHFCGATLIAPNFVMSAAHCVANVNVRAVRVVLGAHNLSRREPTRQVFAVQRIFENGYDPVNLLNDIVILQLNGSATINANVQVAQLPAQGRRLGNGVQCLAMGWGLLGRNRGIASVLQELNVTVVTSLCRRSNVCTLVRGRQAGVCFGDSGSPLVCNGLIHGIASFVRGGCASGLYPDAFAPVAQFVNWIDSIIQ
Protocol: Peripheral venous blood was collected from six healthy donors after informed consent (votum 018-09 of the local ethics committee), and differential blood counts were performed. Neutrophil granulocytes were isolated using the MACSxpress neutrophil isolation kit (Miltenyi Biotec, Bergisch Gladbach, Germany) following the manufacturer’s instructions. Residual erythrocytes were eliminated by hypotonic lysis. Neutrophils were resuspended in PBS with glucose (1 g/L) at a density of 50–100 cells/µL. The purity of the final cell population was analyzed by staining a smear using Pappenheim’s method and counting ≥200 cells using a light microscope.
as §3, §4, §5

eglin C [8] = target: T7, eglin C (Hirudo medicinalis, UniProt P01051); assay: steady-state inhibition, Morrison fit, U937 lysate
T7 chain: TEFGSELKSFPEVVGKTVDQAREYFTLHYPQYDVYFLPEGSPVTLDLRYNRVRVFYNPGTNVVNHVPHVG

eglin C [9] = target: T7, eglin C; assay: steady-state inhibition, Morrison fit, isolated HNE
surface of neutrophils = tested on: surface of neutrophils; set-up: method as in earlier work; conditions: ref 41 (Braun and Schnebli); read-out: surface binding affinity Kd; cited from earlier work
[10] = read-out: IC50, HNE in PMN, 1 h incubation

COC(=O)CCC(=O)N[C@@H](C)C(=O)N[C@@H](C)C(=O)N1CCC[C@H]1C(=O)N[C@H](C(=O)CCl)C(C)C [MeOSuc-AAPV-CMK] (MeOSuc-AAPV-CH2Cl)
time course of HNE inhibition in U937 cells (in words) (HNE in U937 cells): inhibit HNE in U937 cells increasingly over the 26 h observation period

Cl.NCCc1ccc(S(=O)(=O)F)cc1 [Pefabloc SC]
inhibition of activity of isolated HNE ([1]; 1 mM, 1 h, 37 °C, HNE 0.5 nM): 98 ± 0.6%
inhibition of isolated HNE ([1]; at ~10^−3 M): nearly complete inhibition
inhibition of elastase-like activity in U937 lysate (HNE in U937 lysates; 1 mM, 1 h, 37 °C): 91 ± 0.6%
IC50 (HNE in U937 lysates; read-out: IC50(60min), U937 lysate, irreversible inhibitors, incubated 1 h, logistic fit, mean ± SD): 130 µM
inhibition of elastase-like activity in PMN lysate ([2]; 1 mM): 97 ± 0.6%
inhibition of elastase-like activity in HL-60 lysate ([3]; 1 mM): 95 ± 1%
time course of HNE inhibition in U937 cells (in words) (HNE in U937 cells): increases during the first 6 h; also recorded: lose effectiveness over time
IC50 (HNE in U937 cells; 0 h incubation, read-out: IC50, HNE in U937 cells at 0 h): ~100 µM
inhibition of HNE in intact U937 cells (HNE in U937 cells; at ~10^−3 M): nearly complete inhibition
IC50 (HNE in U937 cells; intact U937 cells, time not specified, read-out: IC50, HNE in intact U937 cells): ~100 µM
IC50 (HNE in U937 cells; read-out: IC50, HNE in U937 cells at 6 h, 6 h incubation): ~10 µM
kon (isolated HNE): 1.0 ± 0.1 M⁻¹ s⁻¹
decrease of inhibitory activity after incubation in medium ([4]; serum-free medium (RPMI)): approximately 50%
LDH release from U937 cells (U937 cells [5]; 1000 and 300 µM): 12 ± 2%
reduction of U937 cell proliferation (U937 cells [6]): 50 ± 3%
IC50 [7]: 130 µM
IC50 (HNE in mature PMN; [10]): ~100 µM

COc1cc(C(C)C)c2c(c1)S(=O)(=O)N(COc1cc(=O)n3cccc(OCCN4CCCCC4)c3n1)C2=O [SSR 69071]
Ki (HNE in U937 lysates; U937 lysate 1000 cells/µL, incubated 1 h 37 °C, Morrison fit, mean ± SD): 0.00033 µM
time course of HNE inhibition in U937 cells (in words) (HNE in U937 cells): most effective immediately after addition and then lose effect over time; also recorded: lose effectiveness over time
koff (isolated HNE): 9.2e-05 s⁻¹
kon (isolated HNE): 2.8 ± 0.06 × 10^5 M^−1 s^−1
stability in cell culture medium (in words) ([4]; serum-free medium): appeared stable
LDH release from U937 cells (U937 cells [5]; 12.5 µM): 12 ± 2%

CC(C)(C)C(=O)Oc1ccc(S(=O)(=O)Nc2ccccc2C(=O)NCC(=O)O)cc1 [Sivelestat, sivelestat]
inhibition at 4 µM ([1]; 4 µM, 1 h, 37 °C, HNE 0.5 nM): 99 ± 0.3%
inhibition at 4 µM (HNE in U937 lysates; 4 µM, 1 h, 37 °C, read-out: inhibition of elastase-like activity in U937 lysate): 96 ± 0.3%
inhibition at 4 µM ([2]; 4 µM, read-out: inhibition of elastase-like activity in PMN lysate): 97 ± 0.6%
inhibition of elastase-like activity in HL-60 lysate ([3]; 4 µM): 2 ± 1.2%
effect on HNE activity in the U937 cell culture model (in words) (HNE in U937 cells): no detectable effect; also recorded: no measurable effect; also recorded: do not cause detectable intracellular inhibition
half-life of the complex with HNE (in words) (isolated HNE): seconds to a few minutes
effect on HNE in mature PMN (in words) (HNE in mature PMN; 1 h incubation): negligible effect
potency in PMN compared with U937 cells (in words) (HNE in mature PMN; PMN 1 h vs U937 0-3 h): somewhat more effective in PMN than U937 cells

B1: neutrophil elastase (protein)
chain: IVGGRRARPHAWPFMVSLQLRGGHFCGATLIAPNFVMSAAHCVANVNVRAVRVVLGAHNLSRREPTRQVFAVQRIFENGYDPVNLLNDIVILQLNGSATINANVQVAQLPAQGRRLGNGVQCLAMGWGLLGRNRGIASVLQELNVTVVTSLCRRSNVCTLVRGRQAGVCFGDSGSPLVCNGLIHGIASFVRGGCASGLYPDAFAPVAQFVNWIDSIIQRSEDNPCPHPRDPDPASRTH
Ki (eglin C [8]): 0.00019 µM
Ki (eglin C [9]): 0.013 nM

B2: Eglin C: small leech-derived protein (70 amino acids, 8091 Da), proteinase inhibitor (protein, UniProt P01051 1-70, looked up)
Eglin C: TEFGSELKSFPEVVGKTVDQAREYFTLHYPQYDVYFLPEGSPVTLDLRYNRVRVFYNPGTNVVNHVPHVG
fold less effective on HNE in cell lysates than on isolated HNE (HNE in U937 lysates; U937 lysate vs isolated HNE): 10 fold
fold less potent in PMN lysates (HNE in U937 lysates; printed 'PMN lysates'): ~ 10 fold
effect on HNE activity in the U937 cell culture model (in words) (HNE in U937 cells): do not inhibit HNE
effect on HNE in U937 cells (HNE in U937 cells; 10 µM, after 26 h): little effect
koff (isolated HNE): 3.8e-05 s⁻¹
kon (isolated HNE): 2.9 ± 0.09 × 10^6 M^−1 s^−1
Kd (surface of neutrophils): 0.2 µM
effect on HNE in mature PMN (in words) (HNE in mature PMN; 1 h incubation): inhibits intracellular HNE but only in mature neutrophils
IC50 (HNE in mature PMN; [10]): ~0.02 µM
IC50 (HNE in mature PMN; read-out: IC50 for the inhibition of intracellular HNE, mature neutrophils): 0.02 µM
